Experiment [1] deals with split dopamine aptamer (aptamer1 + aptamer2) (DNA, aptamer) TTCGCAGGTGTGGAGTGACGTCG/CGACGCCAGTTTGAAGGTTCG
The experiment is described as follows: square wave voltammetry (amperometric aptasensor). The note with it: 10 mM Tris; 0.5 μM aptamer2; highest concentration 50 μM.

For experiment [2] the test system is unchanged. The experiment is described as follows: organic electrochemical transistor gate potential shift. The note with it: 10 mM Tris; 0.5 μM aptamer2; highest concentration 10 μM; shift under 15 mV or reversed.
Experiment [3] shares this test system. The experiment is described as follows: organic electrochemical transistor gate potential shift, Langmuir fit. The following applies: 10 mM Tris; 0.5 μM aptamer2; aptamer1 on gold gate; apparent (transducer-dependent).
Experiment [4] shares this test system. Put plainly: square wave voltammetry, Langmuir fit (amperometric aptasensor). The following applies: 10 mM Tris; 0.5 μM aptamer2; aptamer1 on gold; apparent (transducer-dependent).

Regarding `NCCCC(=O)O`, the binding entry in experiment [1] and in experiment [2] was “no” in each case.
In the case of `NCCc1ccc(O)c(O)c1`, the KD in experiment [3] stood at 7 pM; in experiment [4], 5 µM.
For the molecule `N[C@@H](CCC(=O)O)C(=O)O`, the binding entry in experiment [1] and in experiment [2] was “no” in each case.
`O=C1O[C@H]([C@@H](O)CO)C(O)=C1O`: the binding result in experiment [1] and in experiment [2] was “no” throughout.
With `O=c1[nH]c(=O)c2[nH]c(=O)[nH]c2[nH]1`, the binding entry in experiment [1] and in experiment [2] was “no” each time.
